Experimental findings from patent US12576099B2, “Ribose-modified cap analog and use thereof” (Beijing Youcare Kechuang Pharmaceutical Technology Co., Ltd., priority 2024, dated 2026) are described below.

Structures are written as SMILES.

Data set [1] is described as follows: Characterization of lipid nanoparticles encapsulating Fluc-mRNA prepared from different cap structures. It is filed as physicochemical. The conditions noted are these: for Particle size: LNP (YK-009/DSPC/cholesterol/DMG-PEG2000) with Fluc-mRNA transcribed using the named cap analog; for PDI: LNP with Fluc-mRNA transcribed using the named cap analog; for EE: encapsulation efficiency of LNP with Fluc-mRNA transcribed using the named cap analog. As for the experimental part:
Cationic lipid YK-009 (Beijing Youcare Kechuang Pharmaceutical Technology Co., Ltd.), DSPC (AVT (Shanghai) Pharmaceutical Technology Co., Ltd.), cholesterol (AVT (Shanghai) Pharmaceutical Technology Co., Ltd.), and DMG-PEG2000 were dissolved in ethanol at a molar ratio of 49:10:39.5:1.5, and the mRNA was diluted in 50 mM citrate buffer (pH=4). The ethanol lipid solution was mixed with the Fluc-mRNA aqueous solution prepared from different cap structures at a volume ratio of 1:3 using a microfluidic device at a flow rate of 10 mL/min to prepare LNPs at a weight ratio of total lipid to mRNA of approximately 15:1.
The resulting liposomes were diluted to 10-fold volume with PBS, and then ultrafiltered with a 300 KDa ultrafiltration tube to remove ethanol. The volume was then fixed to a certain volume with PBS. Finally, the LNPs were filtered through a 0.2 μm sterile filter to obtain an LNP preparation encapsulating Fluc-mRNA using YK-009/DSPC/cholesterol/DMG-PEG2000 (at a molar ratio of 49:10:39.5:1.5).
The particle size and polydispersity index (PDI) were determined by dynamic light scattering using a Malvern laser particle size analyzer. 10 μL of the liposome solution was taken, diluted to 1 mL with RNase-free deionized water, and added to a sample pool. Each sample was measured in triplicate. The measurement conditions were: a scattering angle of 90° and a temperature of 25° C. The encapsulation efficiency of LNPs was determined using the Quant-iT RiboGreen RNA Quantification Kit (Thermo Fisher Scientific, UK) according to the manufacturer's instructions.

The subject of the next data set is BALB/C mice. Nature of the data set: In vivo imaging of Fluc-mRNA LNP expression in mice. As for the experimental part:
The LNP preparation containing 5 μg of cap analog-transcribed Fluc-mRNA was intramuscularly injected into female BALB/C mice aged 4 to 6 weeks and weighing 17 to 19 g. At specific time points after administration (6 hours, 12 hours, 24 hours, 48 hours, 96 hours, and 168 hours), the mice were intraperitoneally injected with fluorescence imaging substrate. The mice were then allowed to move freely for 5 minutes, followed by detection of the total radiation intensity of the protein expressed by LNP-carrying mRNA in the mice using an IVIS Spectrum small-animal in vivo imaging system (corresponding to the amount of protein expression).
In the in vivo imaging experiments in mice, the multiple of the total radiation intensity for each group of mice relative to the m6A group is shown in Table 8 (where the total radiation intensity is represented as the given value×10^8 p/s).

[2] abbreviates: 6 h, 5 μg Fluc-mRNA LNP intramuscular, mice.
Setting [3] is: 12 h, 5 μg Fluc-mRNA LNP intramuscular, mice.
The mark [4] stands for this setting: 24 h, 5 μg Fluc-mRNA LNP intramuscular, mice.
The mark [5] stands for this setting: 48 h, 5 μg Fluc-mRNA LNP intramuscular, mice.
The mark [6] stands for this setting: 96 h, 5 μg Fluc-mRNA LNP intramuscular, mice.
The mark [7] stands for this setting: 168 h, 5 μg Fluc-mRNA LNP intramuscular, mice.

Take `CO[C@@H]1[C@H](OP(=O)(O)OC[C@H]2O[C@@H](n3cnc4c(=O)[nH]c(N)nc43)[C@H](O)[C@@H]2O)[C@@H](COP(=O)(O)OP(=O)(O)OP(=O)(O)OC[C@H]2OC([n+]3cn(C)c4c(=O)[nH]c(N)nc43)[C@H](O)[C@@H](O)[C@@H]2O)O[C@H]1n1cnc2c(N)ncnc21` (some centres unmarked) [YK-CAP-101]: in data set [1], the Particle size is on record as 75.45 nm. For the same compound, the PDI in data set [1] is recorded as 0.043. Besides, the EE in data set [1] is given as 93.4%. Further, the “Multiple of total radiation intensity relative to m6A” value with BALB/C mice (6 h) was found to be 0.8; in the data set with BALB/C mice (12 h), 0.5; in the data set on BALB/C mice (24 h) it was 0.5; with BALB/C mice (48 h), 0.4; in the data set on BALB/C mice (96 h), 1.5. For the same compound, the Total radiation intensity in the data set with BALB/C mice (setting [2]) is on record as 1.81 ×108 p/s; with BALB/C mice (setting [3]), 0.96 ×108 p/s; in the data set with BALB/C mice (setting [4]), 0.36 ×108 p/s; in the data set with BALB/C mice (setting [5]), 0.19 ×108 p/s; with BALB/C mice (setting [6]), 0.04 ×108 p/s; in the data set on BALB/C mice (setting [7]) it was 0.02 ×108 p/s. In addition, the results for the Total radiation intensity in the data set on BALB/C mice (at 12 hours) and in the data set on BALB/C mice (at 48 hours) were 0.96 ×10^8 p/s and 0.19 ×10^8 p/s, respectively.
In the case of `CO[C@@H]1[C@H](OP(=O)(O)OC[C@H]2O[C@@H](n3cnc4c(=O)[nH]c(N)nc43)[C@H](O)[C@@H]2O)[C@@H](COP(=O)(O)OP(=O)(O)OP(=O)(O)OC[C@H]2O[C@@H]([n+]3cn(C)c4c(=O)[nH]c(N)nc43)[C@H](O)[C@]2(C)NC(C)=O)O[C@H]1n1cnc2c(N)ncnc21` [YK-CAP-106], in data set [1], the Particle size was determined as 68.24 nm. For the same compound, the PDI in data set [1] was found to be 0.048. In data set [1], the EE was found to be 97.1%. In addition, the “Multiple of total radiation intensity relative to m6A” value in the data set with BALB/C mice (6 h) stood at 2.5; with BALB/C mice (12 h) it was 3.2; in the data set with BALB/C mice (24 h), 2.7; in the data set on BALB/C mice (48 h), 1.0; in the data set with BALB/C mice (96 h) it was 2.6. The Total radiation intensity in the data set on BALB/C mice (setting [2]) is on record as 5.88 ×108 p/s; in the data set on BALB/C mice (setting [3]), 6.85 ×108 p/s; with BALB/C mice (setting [4]) it was 1.76 ×108 p/s; in the data set with BALB/C mice (setting [5]), 0.53 ×108 p/s; in the data set on BALB/C mice (setting [6]), 0.11 ×108 p/s; in the data set on BALB/C mice (setting [7]), 0.03 ×108 p/s.
`COC(C)[C@H]1[C@@H](O)[C@H]([n+]2cn(C)c3c(=O)[nH]c(N)nc32)O[C@@H]1COP(=O)(O)OP(=O)(O)OP(=O)(O)OC[C@H]1O[C@@H](n2cnc3c(N)ncnc32)[C@H](OC)[C@@H]1OP(=O)(O)OC[C@H]1O[C@@H](n2cnc3c(=O)[nH]c(N)nc32)[C@H](O)[C@@H]1O` (some centres unmarked) [YK-CAP-107] returned a Particle size in data set [1] of 78.42 nm. In data set [1], this compound returned a PDI of 0.053. In data set [1], this compound registered an EE of 96.3%. The “Multiple of total radiation intensity relative to m6A” value in the data set with BALB/C mice (6 h) is listed as 3.4; in the data set on BALB/C mice (12 h) it was 3.2; in the data set on BALB/C mice (24 h), 2.9; with BALB/C mice (48 h), 1.2; in the data set with BALB/C mice (96 h), 2.5. For the same compound, the Total radiation intensity in the data set with BALB/C mice (setting [2]) is 8.09 ×108 p/s; with BALB/C mice (setting [3]) it was 6.87 ×108 p/s; with BALB/C mice (setting [4]), 1.92 ×108 p/s; in the data set on BALB/C mice (setting [5]), 0.60 ×108 p/s; in the data set on BALB/C mice (setting [6]), 0.11 ×108 p/s; in the data set on BALB/C mice (setting [7]), 0.03 ×108 p/s.
The compound `CO[C@@H]1[C@H](OP(=O)(O)OC[C@H]2O[C@@H](n3cnc4c(=O)[nH]c(N)nc43)[C@H](O)[C@@H]2O)[C@@H](COP(=O)(O)OP(=O)(O)OP(=O)(O)OC[C@H]2O[C@@H]([n+]3cn(C)c4c(=O)[nH]c(N)nc43)[C@H](O)[C@@H]2C(C)NC(C)=O)O[C@H]1n1cnc2c(N)ncnc21` (some centres unmarked) [YK-CAP-108] yielded a Particle size in data set [1] of 83.13 nm. The PDI in data set [1] is listed as 0.023. In data set [1], this compound gave an EE of 96.4%. Moreover, the “Multiple of total radiation intensity relative to m6A” value with BALB/C mice (6 h) is recorded as 2.7; with BALB/C mice (12 h) it was 2.8; in the data set with BALB/C mice (24 h), 2.6; with BALB/C mice (48 h), 2.0; with BALB/C mice (96 h) it was 1.3. Also, the Total radiation intensity was 6.42 ×108 p/s in the data set on BALB/C mice (setting [2]); 6.03 ×108 p/s in the data set on BALB/C mice (setting [3]); 1.70 ×108 p/s in the data set with BALB/C mice (setting [4]); 1.04 ×108 p/s in the data set on BALB/C mice (setting [5]); 0.19 ×108 p/s with BALB/C mice (setting [6]); 0.02 ×108 p/s with BALB/C mice (setting [7]).
For the compound `CO[C@@H]1[C@H](OP(=O)(O)OC[C@H]2O[C@@H](n3cnc4c(=O)[nH]c(N)nc43)[C@H](O)[C@@H]2O)[C@@H](COP(=O)(O)OP(=O)(O)OP(=O)(O)OC[C@H]2O[C@@H]([n+]3cn(C)c4c(=O)[nH]c(N)nc43)[C@H](O)[C@@H]2C(C)F)O[C@H]1n1cnc2c(N)ncnc21` (some centres unmarked) [YK-CAP-109], the Particle size in data set [1] was 86.35 nm. In data set [1], this compound had a PDI of 0.035. The compound also showed an EE in data set [1] of 97.2%. In addition, the “Multiple of total radiation intensity relative to m6A” value with BALB/C mice (6 h) was found to be 2.6; with BALB/C mice (12 h), 2.8; in the data set on BALB/C mice (24 h) it was 2.8; in the data set with BALB/C mice (48 h) it was 1.0; in the data set with BALB/C mice (96 h), 2.7. Further, the Total radiation intensity with BALB/C mice (setting [2]) is on record as 6.04 ×108 p/s; with BALB/C mice (setting [3]) it was 5.84 ×108 p/s; in the data set on BALB/C mice (setting [4]), 1.85 ×108 p/s; with BALB/C mice (setting [5]), 0.54 ×108 p/s; in the data set with BALB/C mice (setting [6]) it was 0.14 ×108 p/s; in the data set with BALB/C mice (setting [7]) it was 0.03 ×108 p/s.
With `CO[C@@H]1[C@H](OP(=O)(O)OC[C@H]2O[C@@H](n3cnc4c(=O)[nH]c(N)nc43)[C@H](O)[C@@H]2O)[C@@H](COP(=O)(O)OP(=O)(O)OP(=O)(O)OC[C@H]2O[C@@H]([n+]3cn(C)c4c(=O)[nH]c(N)nc43)[C@H](O)[C@@H]2C(F)F)O[C@H]1n1cnc2c(N)ncnc21` [YK-CAP-110], in data set [1], the Particle size is reported as 69.64 nm. Also, in data set [1], the PDI came out at 0.033. Further, in data set [1], the EE is 97.7%. For the same compound, the “Multiple of total radiation intensity relative to m6A” value in the data set with BALB/C mice (6 h) is given as 4.1; with BALB/C mice (12 h) it was 5.0; with BALB/C mice (24 h), 4.6; in the data set with BALB/C mice (48 h), 4.4; in the data set with BALB/C mice (96 h) it was 1.0. Besides, the Total radiation intensity in the data set with BALB/C mice (setting [2]) is given as 9.52 ×108 p/s; in the data set with BALB/C mice (setting [3]) it was 10.55 ×108 p/s; with BALB/C mice (setting [4]), 3.04 ×108 p/s; in the data set with BALB/C mice (setting [5]), 2.30 ×108 p/s; in the data set with BALB/C mice (setting [6]), 0.27 ×108 p/s; with BALB/C mice (setting [7]), 0.04 ×108 p/s. In addition, the figures for the Total radiation intensity in the data set with BALB/C mice (at 12 hours) and with BALB/C mice (at 48 hours) were 10.55 ×10^8 p/s and 2.30 ×10^8 p/s, respectively. Moreover, the “Total radiation intensity, times that of N-7113” value in the data set with BALB/C mice (at 12 hours) was determined as 2.4 times; in the data set on BALB/C mice (at 48 hours), 4.7 times. Also, the “Total radiation intensity, times that of YK-CAP-101” value in the data set with BALB/C mice (at 12 hours) is recorded as 11.0 times; in the data set with BALB/C mice (at 48 hours) it was 12.1 times.
